The results in this text go back to patent US9656962B2, “Ring-contracted morphinans and the use thereof” (Purdue Pharma L.P., priority 2013, dated 2017).

Molecules are shown by their SMILES.

A word on the Emax: it is the maximal effect, on the per cent scale that the assay sets. One may read the EC50 as the concentration giving half of the maximal effect. High values mean a need for much substance, low ones an effect from little substance.

Type in all cases: biochemical
Experiment [1] addresses κ-opioid receptor (Homo sapiens (Human), UniProt P41145). The experiment can be described thus: κ-opioid receptor [35S]GTPγS functional assay, U-2 OS cells (Table 5). The settings on record: for Emax: relative to U69,593; for EC50: κ GTP. How it is done: κ-Opioid Receptor Functional Assay Procedures: Functional [^35S]GTPγS binding assays were conducted as follows. κ opioid receptor membrane solution was prepared by sequentially adding final concentrations of 0.026 μg/μl κ membrane protein (in-house), 10 μg/mL saponin, 3 μM GDP and 0.20 nM [^35S]GTPγS to binding buffer (100 mM NaCl, 10 mM MgCl2, 20 mM HEPES, pH 7.4) on ice. The prepared membrane solution (190 μl/well) was transferred to 96-shallow well polypropylene plates containing 10 μl of 20× concentrated stock solutions of agonist prepared in DMSO. Plates were incubated for 30 min at a temperature of about 25° C. with shaking. Reactions were terminated by rapid filtration onto 96-well Unifilter GF/B filter plates (Perkin Elmer, Shelton, Conn.) using a 96-well tissue harvester (Packard) and followed by three filtration washes with 200 μl ice-cold binding buffer (10 mM NaH2PO4, 10 mM Na2HPO4, pH 7.4). Filter plates were subsequently dried at 50° C. for 2-3 hours. Fifty μl/well scintillation cocktail (Perkin Elmer, Shelton, Conn.) was added and plates were counted in a Packard Top-Count for 1 min/well.
κ GTP Emax (%) is the maximal effect elicited by a compound relative to the effect elicited by U69,593.
The following TABLE 5 provides results on the activity response of certain Compounds of the Invention at the μ- and κ-opioid receptors determined as described above using U-2 OS cells.
In general terms: GTPγS is a poorly hydrolysed GTP analogue; its binding reports G protein activation.

For experiment [2], the target named is T1, μ-opioid receptor (Homo sapiens (Human), UniProt P35372). The experiment can be described thus: μ-opioid receptor [35S]GTPγS functional assay, U-2 OS cells (Table 5). The settings on record: for Emax: relative to DAMGO; for EC50: μ GTP. How it is done:
(§1) μ-Opioid Receptor Functional Assay Procedures: [^35S]GTPγS functional assays were conducted using freshly thawed μ-receptor membranes prepared in-house from a cell line expressing recombinant μ opioid receptor in a HEK-293, CHO or U-2 OS cell background, or purchased from a commercial source (Perkin Elmer, Shelton, Conn.; or DiscovRx, Fremont, Calif.). Assay reactions were prepared by sequentially adding the following reagents to binding buffer (100 mM NaCl, 10 mM MgCl2, 20 mM HEPES, pH 7.4) on ice (final concentrations indicated): membrane protein (0.026 mg/mL), saponin ([…]), GDP ([…]) and [^35S]GTPγS (0.20 nM; Perkin Elmer, Shelton, Conn.). The prepared membrane solution (190 μl/well) was transferred to 96-shallow well polypropylene plates containing 10 μl of 20× concentrated stock solutions of the agonist [D-Ala^2, N-methyl-Phe^4 Gly-ol^5]-enkephalin (DAMGO) prepared in dimethyl sulfoxide (DMSO). Plates were incubated for 30 min at about 25° C. with shaking Reactions were terminated by rapid filtration onto 96-well Unifilter GF/B filter plates (Perkin Elmer, Shelton, Conn.) using a 96-well tissue harvester (Perkin Elmer, Shelton, Conn.) followed by three filtration washes with 200 μl of ice-cold wash buffer (10 mM NaH2PO4, 10 mM Na2HPO4, pH 7.4). Filter plates were subsequently dried at 50° C. for 2-3 hours. BetaScint scintillation cocktail (Perkin Elmer, Shelton, Conn.) was added (50 μl/well) and plates were counted using a Packard Top-Count for 1 min/well. Data were analyzed using the sigmoidal dose-response curve fitting functions in GraphPad PRISM v. 3.0, or an in-house function for non-linear, sigmoidal dose-response curve-fitting. [^35S]GTPγS functional assays can also be conducted using freshly thawed μ-receptor membranes prepared from a cell line expressing recombinant μ opioid receptor in a CHO-K1 cell background.
(§2) μ GTP Emax (%) is the maximal effect elicited by a compound relative to the effect elicited by DAMGO, a standard μ agonist.

In experiment [3] the target is T1, μ-opioid receptor. Kind of experiment: μ-opioid receptor [35S]GTPγS functional assay, HEK-293 or CHO cells (Table 4). To be noted: for Emax: relative to DAMGO; for EC50: μ GTP. As for the experimental part:
as §1, §2
In TABLE 4, activity response of certain Compounds of the Invention to the μ- and κ-opioid receptors was determined as described above for functional assays using HEK-293 or CHO cells.

With `COc1ccc2c(c1)C13CCN(CC4CC4)[C@H](C2)[C@]1(O)C[C@@H](N)C3` (stereo in doubt) [Compound 28, (2S,3aS,4R,9bS)-2-amino-12-(cyclopropylmethyl)-8-methoxy-1,2,3,3a,4,5-hexahydro-4,9b-(epiminoethano)cyclopenta[a]naphthalene-3a-ol], the Emax in experiment [1] amounted to 106.7 ± 0.88%; in experiment [2], 35.7 ± 5.49%; in experiment [3], 7.5%. Besides, the results for the EC50 in experiment [1], in experiment [2] and in experiment [3] (bound given in μM) were 179 ± 16.4 nM, 326 ± 77.9 nM and more than 20 µM, respectively.
On to `COc1ccc2c(c1)[C@]13CCN(CC4CC4)[C@H](C2)[C@]1(O)C[C@@H](C(=O)O)C3` [Compound 15, (2S,3aS,4R,9bS)-12-(cyclopropylmethyl)-3a-hydroxy-8-methoxy-1,2,3,3a,4,5-hexahydro-4,9b-(epiminoethano)-cyclopenta[a]naphthalene-2-carboxylic acid], for which the Emax came to 79.7 ± 5.81% in experiment [1], 31.6 ± 3.21% in experiment [2] and 7% in experiment [3]. In addition, the EC50 was 2900 ± 82.3 nM in experiment [1], 343 ± 110 nM in experiment [2] and more than 20 µM in experiment [3] (bound given in μM).
In the case of `COc1ccc2c(c1)[C@]13CCN(CC4CC4)[C@H](C2)[C@]1(O)C[C@H](C#N)C3` [Compound 25, (2R,3aS,4R,9bS)-12-(cyclopropylmethyl)-3a-hydroxy-8-methoxy-1,2,3,3a,4,5-hexahydro-4,9b-(epiminoethano)-cyclopenta[a]naphthalene-2-carbonitrile], the Emax in experiment [1] turned out to be 107 ± 4.16%; in experiment [2], 54.3 ± 4.1%; in experiment [3], 12 ± 2.08%. Also, the EC50 worked out at 234 ± 28.5 nM in experiment [1], 228 ± 25.4 nM in experiment [2] and 0.616 ± 0.0409 µM in experiment [3].
Consider `O=C(NCc1ccc(O)cc1)[C@@H]1C[C@]23CCN(CC4CC4)[C@H](Cc4ccc(O)cc42)[C@]3(O)C1` [Compound 39, (2R,3aS,4R,9bS)-12-(cyclopropylmethyl)-3a,8-dihydroxy-N-(4-hydroxybenzyl)-1,2,3,3a,4,5-hexahydro-4,9b-(epimino-ethano)cyclopenta[a]naphthalene-2-carboxamide], for which the Emax in experiment [1] is 91.7 ± 1.86%; in experiment [2] it was 42 ± 1%; in experiment [3], 15 ± 1.73%. Moreover, the EC50 in experiment [1] was 1.85 ± 0.097 nM; in experiment [2] it was 11.1 ± 0.28 nM; in experiment [3], 0.0375 ± 0.0126 µM.
Regarding `O=C(NCc1ccc(O)cc1)[C@H]1C[C@]23CCN(CC4CC4)[C@H](Cc4ccc(O)cc42)[C@]3(O)C1` [Compound 40, (2S,3aS,4R,9bS)-12-(cyclopropylmethyl)-3a,8-dihydroxy-N-(4-hydroxybenzyl)-1,2,3,3a,4,5-hexahydro-4,9b-(epiminoethano)cyclopenta[a]naphthalene-2-carboxamide], the Emax in experiment [1] came out at 97.7 ± 1.86%; in experiment [2] it was 29.3 ± 1.33%; in experiment [3], 1%. The EC50 was 0.73 ± 0.07 nM in experiment [1], 1.45 ± 0.068 nM in experiment [2] and more than 20 µM in experiment [3] (bound given in μM).
Regarding `O=C(NCc1ccc(Cl)cc1)[C@@H]1C[C@]23CCN(CC4CC4)[C@H](Cc4ccc(O)cc42)[C@]3(O)C1` [Compound 43, (2R,3aS,4R,9bS)-N-(4-chlorobenzyl)-12-(cyclopropylmethyl)-3a,8-dihydroxy-1,2,3,3a,4,5-hexahydro-4,9b-(epimino-ethano)cyclopenta[a]naphthalene-2-carboxamide], the Emax turned out to be 102 ± 5.9% in experiment [1], 41.3 ± 2.03% in experiment [2] and 11 ± 0.82% in experiment [3]. In addition, the EC50 in experiment [1] was found to be 0.67 ± 0.02 nM; in experiment [2] it was 4.55 ± 0.14 nM; in experiment [3], 0.00835 ± 0.0018 µM.
`O=C(NCCCN1CCOCC1)[C@@H]1C[C@]23CCN(CC4CC4)[C@H](Cc4ccc(O)cc42)[C@]3(O)C1` [Compound 85, (2R,3aS,4R,9bS)-12-(cyclopropyl-methyl)-3a,8-dihydroxy-N-(3-morpholinopropyl)-1,2,3,3a,4,5-hexahydro-4,9b-(epimino-ethano)cyclopenta[a]naphthalene-2-carboxamide]: the Emax in experiment [3] is -1%. The same compound registered an EC50 in experiment [3] (bound given in μM) of more than 20 µM.
With `O=C([C@@H]1C[C@]23CCN(CC4CC4)[C@H](Cc4ccc(O)cc42)[C@]3(O)C1)N1CCN(c2ccccc2)CC1` [Compound 86, ((2R,3aS,4R,9bS)-12-(cyclopropylmethyl)-3a,8-dihydroxy-1,2,3,3a,4,5-hexahydro-4,9b-(epiminoethano)cyclopenta-[a]naphthalen-2-yl)(4-phenylpiperazin-1-yl)methanone], in experiment [3], the Emax was 12.8 ± 0.63% and the EC50 is 0.0288 ± 0.0105 µM.
`O=C([C@@H]1C[C@]23CCN(CC4CC4)[C@H](Cc4ccc(O)cc42)[C@]3(O)C1)N1CCSCC1` [Compound 87, ((2R,3aS,4R,9bS)-12-(cyclopropylmethyl)-3a,8-dihydroxy-1,2,3,3a,4,5-hexahydro-4,9b-(epiminoethano)cyclopenta-[a]naphthalen-2-yl)(thiomorpholino)-methanone]: the Emax in experiment [3] was found to be 1%. This compound yielded an EC50 in experiment [3] (bound given in μM) of more than 20 µM.
`O=C([C@@H]1C[C@]23CCN(CC4CC4)[C@H](Cc4ccc(O)cc42)[C@]3(O)C1)N1CCC(N2CCCC2)CC1` [Compound 88, ((2R,3aS,4R,9bS)-12-(cyclopropylmethyl)-3a,8-dihydroxy-1,2,3,3a,4,5-hexahydro-4,9b-(epiminoethano)cyclopenta-[a]naphthalen-2-yl)(4-(pyrrolidin-1-yl)piperidin-1-yl)methanone]: the Emax in experiment [3] was determined as 0%. For the same compound, in experiment [3] (bound given in μM), the EC50 was more than 20 µM.
With `O=C(NCc1cccnc1)[C@@H]1C[C@]23CCN(CC4CC4)[C@H](Cc4ccc(O)cc42)[C@]3(O)C1` [Compound 89, (2R,3aS,4R,9bS)-12-(cyclopropylmethyl)-3a,8-dihydroxy-N-(pyridin-3-ylmethyl)-1,2,3,3a,4,5-hexahydro-4,9b-(epimino-ethano)cyclopenta[a]naphthalene-2-carboxamide], the Emax in experiment [3] stood at 4.5%. The same compound had an EC50 in experiment [3] (bound given in μM) of more than 20 µM.
The matching figures for `O=C(NCc1ccncc1)[C@@H]1C[C@]23CCN(CC4CC4)[C@H](Cc4ccc(O)cc42)[C@]3(O)C1` [Compound 90, (2R,3aS,4R,9bS)-12-(cyclopropylmethyl)-3a,8-dihydroxy-N-(pyridin-4-ylmethyl)-1,2,3,3a,4,5-hexahydro-4,9b-(epimino-ethano)cyclopenta[a]naphthalene-2-carboxamide]: 8.14 ± 1.3% and more than 20 µM.
As to `O=C(NCCCN1CCOCC1)[C@H]1C[C@]23CCN(CC4CC4)[C@H](Cc4ccc(O)cc42)[C@]3(O)C1` [Compound 91, (2S,3aS,4R,9bS)-12-(cyclopropylmethyl)-3a,8-dihydroxy-N-(3-morpholinopropyl)-1,2,3,3a,4,5-hexahydro-4,9b-(epimino-ethano)cyclopenta[a]naphthalene-2-carboxamide], the Emax in experiment [3] is -1%. Also, the EC50 in experiment [3] (bound given in μM) is more than 20 µM.
Consider `O=C(NCc1cccnc1)[C@H]1C[C@]23CCN(CC4CC4)[C@H](Cc4ccc(O)cc42)[C@]3(O)C1` [Compound 92, (2S,3aS,4R,9bS)-12-(cyclopropylmethyl)-3a,8-dihydroxy-N-(pyridin-3-ylmethyl)-1,2,3,3a,4,5-hexahydro-4,9b-(epimino-ethano)cyclopenta[a]naphthalene-2-carboxamide], for which the Emax in experiment [3] was -1%. In addition, in experiment [3] (bound given in μM), the EC50 was more than 20 µM.
Turning to `O=C([C@H]1C[C@]23CCN(CC4CC4)[C@H](Cc4ccc(O)cc42)[C@]3(O)C1)N1CCS(=O)(=O)CC1` [Compound 94, ((2S,3aS,4R,9bS)-12-(cyclopropylmethyl)-3a,8-dihydroxy-1,2,3,3a,4,5-hexahydro-4,9b-(epiminoethano)cyclopenta-[a]naphthalen-2-yl)(1,1-dioxido-thiomorpholino)methanone], the Emax in experiment [3] is 10.6 ± 3.41%. This compound also gave an EC50 in experiment [3] (bound given in μM) of more than 20 µM.
